For one assay, the target named is Adenosine receptor A2a (Homo sapiens, UniProt P29274). Put plainly: Displacement of [3H]-ZM241385 from human recombinant A2A receptor expressed in human HEK293 cell membrane preincubated for 5 mins and measured after 1.5 hrs by radioligand competition binding assay. In kind it is cell membranes.
The next assay addresses T1, Adenosine receptor A1 (Homo sapiens, UniProt P30542).
T1 sequence (P30542 whole entry): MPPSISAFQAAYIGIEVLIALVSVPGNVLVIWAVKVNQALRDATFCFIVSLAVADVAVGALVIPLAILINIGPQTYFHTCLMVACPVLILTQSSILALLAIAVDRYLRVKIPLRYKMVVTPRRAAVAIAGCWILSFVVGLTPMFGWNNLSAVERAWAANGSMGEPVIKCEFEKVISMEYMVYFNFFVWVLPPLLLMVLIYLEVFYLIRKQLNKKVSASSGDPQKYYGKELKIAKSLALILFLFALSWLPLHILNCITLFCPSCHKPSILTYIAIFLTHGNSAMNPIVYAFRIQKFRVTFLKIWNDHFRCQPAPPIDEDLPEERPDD
Put plainly: Displacement of [3H]DPCPX from human adenosine A1 receptor expressed in CHO-K1 cell membrane preincubated for 5 mins followed measured after 50 mins by radioligand competition binding assay. In kind it is cell membranes.

Where only a bound is given, the exact number is not on record here.

Sequence of Adenosine receptor A2a (P29274 whole entry): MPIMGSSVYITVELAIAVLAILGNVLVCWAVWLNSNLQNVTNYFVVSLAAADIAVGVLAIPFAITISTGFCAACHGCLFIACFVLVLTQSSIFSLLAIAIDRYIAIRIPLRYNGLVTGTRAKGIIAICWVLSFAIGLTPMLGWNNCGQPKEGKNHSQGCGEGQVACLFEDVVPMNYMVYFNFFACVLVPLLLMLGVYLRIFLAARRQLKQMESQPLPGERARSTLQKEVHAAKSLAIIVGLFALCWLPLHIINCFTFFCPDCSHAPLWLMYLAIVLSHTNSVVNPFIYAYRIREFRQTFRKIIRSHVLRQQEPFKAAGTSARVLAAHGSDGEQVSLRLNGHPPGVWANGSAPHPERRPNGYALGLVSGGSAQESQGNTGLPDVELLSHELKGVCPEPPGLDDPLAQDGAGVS

On to `Cc1ccc(-c2cn3c(nc4ccccc43)c(N)n2)cc1`, for which the values for the IC50 at Adenosine receptor A2a and at Adenosine receptor A1 were 14.4 nM and 63.9 nM, respectively.

For the compound `COc1cccc(-c2cn3c(nc4ccccc43)c(N)n2)c1`, the half-maximal inhibitory concentration (IC50) at Adenosine receptor A2a turned out to be 10.1 nM; at Adenosine receptor A1 it was 95.8 nM.

In the case of `N#Cc1ccc(-c2cn3c(nc4ccccc43)c(N)n2)cc1`, the 50% inhibitory concentration (IC50) on Adenosine receptor A2a turned out to be 74.4 nM.

Take `Nc1nc(C2CCN(CC(=O)N3CCOCC3)CC2)cn2c1nc1ccccc12`: the IC50 on Adenosine receptor A2a was over 10000 nM.

With `Nc1nc(Cc2ccccc2)cn2c1nc1ccccc12`, the IC50 on Adenosine receptor A1 was 733 nM.

On to `COc1ccccc1-c1cn2c(nc3ccccc32)c(N)n1`, for which the IC50 on Adenosine receptor A2a is 83.1 nM.

Consider `Cc1c(-c2ccccc2)nc(N)c2nc3ccccc3n12`, for which the IC50 on Adenosine receptor A2a was found to be 114 nM.

As to `Nc1nc(-c2ccccc2)cn2c1nc1ccccc12`, the IC50 at Adenosine receptor A2a amounted to 46.5 nM.

For the compound `Nc1nc(-c2ccc([N+](=O)[O-])cc2)cn2c1nc1ccccc12`, on Adenosine receptor A2a, the IC50 worked out at 71.9 nM.

In turn, `Nc1nc(-c2cccc(Br)c2)cn2c1nc1ccccc12` showed an IC50 at Adenosine receptor A1 of 92.1 nM.

Regarding `Nc1nc(-c2ccc(C(F)(F)F)cc2)cn2c1nc1ccccc12`, the IC50 on Adenosine receptor A2a was 26.5 nM.

On to `Nc1nc(CO)cn2c1nc1ccccc12`, for which the IC50 on Adenosine receptor A2a was 149 nM.

As for `CC(=O)Nc1cccc(-c2cn3c(nc4ccccc43)c(N)n2)c1`, the values for the IC50 on Adenosine receptor A2a and on Adenosine receptor A1 were 48.6 nM and 17 nM, respectively.

Regarding `Nc1nc(C2CCNCC2)cn2c1nc1ccccc12`, the IC50 on Adenosine receptor A2a is over 10000 nM.

For the compound `Nc1nc(-c2ccc(Cl)cc2)cn2c1nc1ccccc12`, on Adenosine receptor A2a, the IC50 amounted to 35.4 nM.

With `Nc1nc(-c2ccc(Br)cc2)cn2c1nc1ccccc12`, the IC50 on Adenosine receptor A2a came to 38.4 nM.

Compound `COc1cccc(-c2cn3c(nc4cc(F)c(F)cc43)c(N)n2)c1` displayed an IC50 at Adenosine receptor A1 of 460 nM.

With `Nc1nc(-c2ccc(OC(F)(F)F)cc2)cn2c1nc1ccccc12`, the IC50 on Adenosine receptor A2a turned out to be 131 nM.

As to `COCCN1CCC(c2cn3c(nc4ccccc43)c(N)n2)CC1`, the 50% inhibitory concentration (IC50) at Adenosine receptor A2a is over 10000 nM.

For the compound `Nc1nc(-c2ccco2)cn2c1nc1ccccc12`, the IC50 at Adenosine receptor A2a worked out at 32.6 nM; at Adenosine receptor A1, 6.3 nM.

For `CC(=O)Nc1ccc(-c2cn3c(nc4ccccc43)c(N)n2)cc1`, the IC50 at Adenosine receptor A2a was 312 nM.

Regarding `CC(C)(C)c1ccc(-c2cn3c(nc4ccccc43)c(N)n2)cc1`, the IC50 on Adenosine receptor A2a was found to be 33 nM.

With `Nc1nc(-c2ccc(F)cc2F)cn2c1nc1ccccc12`, the values for the IC50 at Adenosine receptor A2a and at Adenosine receptor A1 were 33.7 nM and 4.4 nM, respectively.

With `COc1ccc(-c2cn3c(nc4ccccc43)c(N)n2)cc1`, on Adenosine receptor A2a, the IC50 amounted to 51.2 nM.

With `Nc1nc(-c2ccc(O)cc2)cn2c1nc1ccccc12`, the IC50 at Adenosine receptor A2a was determined as 81.3 nM.
